Laboratory results: ChEMBL document CHEMBL4483862, “Open-source discovery of chemical leads for next-generation chemoprotective antimalarials” (2018)

Tested on: Plasmodium berghei
Assay: Luciferase/luciferin-expressing antifolate-resistant parasites were used to infect a culture of HepG2 cells that were pre-incubated with compounds. Infected hepatocytes emit light due to the luciferase reaction. Assay results are presented as the percent inhibition of light emission compared to control. […]
Format: functional
Settings: sporozoite; for IC90: read-out: LUCIFERASE INFECTION ASSAY - IC90
[1] = read-out: LUCIFERASE INFECTION ASSAY - IC50

SMILES | IC90 | IC50 [1] | further results
O=C(Cc1ccc(O)cc1)N1CCc2nc(NCc3cccc(Oc4ccccc4)c3)ncc2C1 | 4.97 µM | – | IC50 (HEPG2TOX_HILL_SLOPE 1.26, HEPG2TOX_R_SQUARED 0.949, PBLUC_HILL_SLOPE 2.67, PBLUC_R_SQUARED 0.466, read-out: LUCIFERASE INFECTION ASSAY - IC50): 2.18 µM
Cc1cc(C)cc(NC(=O)CCN2c3ccccc3Sc3ccccc32)c1 | > 10 µM | – | IC50 (FFLUC_HILL_SLOPE 15.9, FFLUC_R_SQUARED 0.234, read-out: LUCIFERASE INFECTION ASSAY - IC50): > 10 µM
Cc1ccccc1-c1noc(CN(C2CCCc3ccccc32)S(C)(=O)=O)n1 (stereo unspecified) | > 8.3 µM | – | IC50 (HEPG2TOX_HILL_SLOPE 2, HEPG2TOX_R_SQUARED 0.927, PBLUC_HILL_SLOPE 1.37, PBLUC_R_SQUARED 0.678, read-out: LUCIFERASE INFECTION ASSAY - IC50): 1.93 µM
Cn1cc(S(=O)(=O)Nc2cccc(CN3C(=O)CNC3=O)c2)cc1C(N)=O | > 10 µM | > 10 µM | –
Cc1nn(C)c2nc(C3CC3)cc(C(=O)Nc3ccccc3C(=O)NC(C)c3ccccc3)c12 (stereo unspecified) | > 10 µM | 8.82 µM | –
CS(=O)(=O)c1ccc(-c2cnc3c(NC=O)cc(-c4ccsc4)cn23)cc1 | 4.59 µM | – | IC50 (PBLUC_HILL_SLOPE 3.07, PBLUC_R_SQUARED 0.32, read-out: LUCIFERASE INFECTION ASSAY - IC50): 2.24 µM
COCCCn1c(-c2ccc(C(C)(C)C)cc2)n[nH]c1=S | > 10.8 µM | – | IC50 (PBLUC_HILL_SLOPE 2.97, PBLUC_R_SQUARED 0.207, read-out: LUCIFERASE INFECTION ASSAY - IC50): 6.76 µM
Cc1ccc(Cn2ccs/c2=N/C(=O)c2cc3c(s2)CCCCC3)cc1 | 0.491 µM | – | IC50 (PBLUC_HILL_SLOPE 1.2, PBLUC_R_SQUARED 0.823, read-out: LUCIFERASE INFECTION ASSAY - IC50): 0.0784 µM
Cc1ccc2c(c1)s/c(=N/C(=O)c1cccs1)n2C | > 10 µM | 2.27 µM | –
CSc1sc(NC(=O)Nc2ccc(Cl)cc2)cc1S(=O)(=O)C(C)C | > 8.15 µM | – | IC50 (PBLUC_HILL_SLOPE 7.91, PBLUC_R_SQUARED 0.357, read-out: LUCIFERASE INFECTION ASSAY - IC50): 6.79 µM
Cc1ccc2nc(NC(=O)c3cccc(F)c3)c(C(=O)NC3CCCC3)n2c1 | 1.08 µM | 0.886 µM | –
N#C/C(=C\Nc1cc(C(F)(F)F)cc(C(F)(F)F)c1)S(=O)(=O)c1ccccc1 | > 7.85 µM | – | IC50 (FFLUC_HILL_SLOPE 0.883, FFLUC_R_SQUARED 0.592, HEPG2TOX_HILL_SLOPE 1.61, HEPG2TOX_R_SQUARED 0.979, PBLUC_HILL_SLOPE 2.79, PBLUC_R_SQUARED 0.181, read-out: LUCIFERASE INFECTION ASSAY - IC50): 4.35 µM
Cc1ccc(C2CC(c3cccs3)=NN2c2ccc(C=C(C#N)C#N)cc2)o1 (stereo unspecified) | > 10 µM | – | IC50 (FFLUC_HILL_SLOPE 2.65, FFLUC_R_SQUARED 0.905, HEPG2TOX_HILL_SLOPE 1.94, HEPG2TOX_R_SQUARED 0.705, PBLUC_HILL_SLOPE 0.92, PBLUC_R_SQUARED 0.729, read-out: LUCIFERASE INFECTION ASSAY - IC50): 1.71 µM
O=C(Nc1cc(C(F)(F)F)ccc1Cl)C(Sc1nnc(Cc2cccs2)n1CCc1ccccc1)c1ccccc1 (stereo unspecified) | > 10 µM | 5.35 µM | –
COc1cc(Nc2ccn3ncc(-c4ccc(N)cc4)c3n2)cc(OC)c1OC | 3.83 µM | – | IC50 (HEPG2TOX_HILL_SLOPE 3.9, HEPG2TOX_R_SQUARED 0.655, PBLUC_HILL_SLOPE 12, PBLUC_R_SQUARED 0.445, read-out: LUCIFERASE INFECTION ASSAY - IC50): 3.19 µM
COc1cc(OC)cc(C2c3c(C)nn(-c4ccccc4)c3NC(=O)C2NC(=O)c2ccccc2)c1 (stereo unspecified) | > 10 µM | > 10 µM | –
O=C(Nc1ccc(F)cc1)c1cccc(C(=O)Nc2ccc(F)cc2)n1 | 5.69 µM | 3.45 µM | –
O=C(Nc1ccc(F)c(Cl)c1)Nc1csc(Cc2c(Cl)cccc2Cl)n1 | > 7.66 µM | – | IC50 (FFLUC_HILL_SLOPE 16.6, FFLUC_R_SQUARED 0.437, PBLUC_HILL_SLOPE 14.1, PBLUC_R_SQUARED 0.179, read-out: LUCIFERASE INFECTION ASSAY - IC50): 6.61 µM
CCCn1c(NC(=O)c2ccc(S(=O)(=O)N3CC(C)OC(C)C3)cc2)nc2ccccc21 (stereo unspecified) | 5.08 µM | – | IC50 (HEPG2TOX_HILL_SLOPE 9.83, HEPG2TOX_R_SQUARED 0.869, PBLUC_HILL_SLOPE 10.1, PBLUC_R_SQUARED 0.696, read-out: LUCIFERASE INFECTION ASSAY - IC50): 4.09 µM
Cc1ccc2nc(-c3ccc(NC(=O)CN4C(=O)NC(C)(c5ccc(OC(F)F)cc5)C4=O)cc3)sc2c1 (stereo unspecified) | > 10 µM | – | IC50 (PBLUC_HILL_SLOPE 1.6, PBLUC_R_SQUARED 0.077, read-out: LUCIFERASE INFECTION ASSAY - IC50): > 10 µM
COc1ccc(-c2cnc3cnc(/C=C/c4ccccc4)cn23)cc1 | 2.11 µM | – | IC50 (PBLUC_HILL_SLOPE 3.95, PBLUC_R_SQUARED 0.779, read-out: LUCIFERASE INFECTION ASSAY - IC50): 1.21 µM
CN(C)C(=O)c1cccc(-c2cn3c(-c4ccc5ncccc5c4)cnc3cn2)c1 | > 8.39 µM | – | IC50 (PBLUC_HILL_SLOPE 5.92, PBLUC_R_SQUARED 0.583, read-out: LUCIFERASE INFECTION ASSAY - IC50): 5.83 µM

SMILES | IC90 | IC50 [1] | further results
O=C(Nc1ccc(Cl)c(Cl)c1)n1ccc(C(F)(F)F)n1 | > 10.2 µM | – | IC50 (HEPG2TOX_HILL_SLOPE 2.26, HEPG2TOX_R_SQUARED 0.289, PBLUC_HILL_SLOPE 2.6, PBLUC_R_SQUARED 0.537, read-out: LUCIFERASE INFECTION ASSAY - IC50): 5.64 µM
CSc1sc(C(=O)NN=C(C)C)c2c1C(O)CCC2 (stereo unspecified) | > 11.1 µM | – | IC50 (HEPG2TOX_HILL_SLOPE 6.67, HEPG2TOX_R_SQUARED 0.767, PBLUC_HILL_SLOPE 1.8, PBLUC_R_SQUARED 0.584, read-out: LUCIFERASE INFECTION ASSAY - IC50): 10.2 µM
Nc1ccc(-c2cn3c(-c4cccc(OC(F)(F)F)c4)cnc3cn2)cn1 | 4.23 µM | – | IC50 (PBLUC_HILL_SLOPE 9.99, PBLUC_R_SQUARED 0.381, read-out: LUCIFERASE INFECTION ASSAY - IC50): 3.39 µM
C=CCn1c(-c2ccccc2)cs/c1=N\Nc1ccc([N+](=O)[O-])cc1 | > 10 µM | – | IC50 (FFLUC_HILL_SLOPE 10.5, FFLUC_R_SQUARED 0.467, read-out: LUCIFERASE INFECTION ASSAY - IC50): > 10 µM
CCN1C(=O)N(CCCc2cccnc2)C(=O)C12CCN(Cc1ccc(-c3ccccc3C)cc1)CC2 | 2.68 µM | – | IC50 (HEPG2TOX_HILL_SLOPE 4.7, HEPG2TOX_R_SQUARED 0.961, PBLUC_HILL_SLOPE 9.72, PBLUC_R_SQUARED 0.497, read-out: LUCIFERASE INFECTION ASSAY - IC50): 2.14 µM
CCOC(=O)c1ccc(Oc2c[nH]nc2-c2ccc(OC)cc2O)cc1 | > 9.31 µM | – | IC50 (FFLUC_HILL_SLOPE 1.78, FFLUC_R_SQUARED 0.28, read-out: LUCIFERASE INFECTION ASSAY - IC50): > 9.31 µM
Cn1nc(CC(=O)N2CC(C(=O)N3CCCCC3)Oc3ccccc32)c2ccccc2c1=O (stereo unspecified) | > 10 µM | > 10 µM | –
CC(C)Oc1ccc(Nc2nccc3[nH]c(-c4ccsc4)cc23)cc1 | 4.09 µM | 2.25 µM | –
Cc1ccc(S(=O)(=O)c2nc(/C=C3\N(C)c4ccccc4C3(C)C)sc2Cl)cc1 | > 10 µM | – | IC50 (FFLUC_HILL_SLOPE 1.82, FFLUC_R_SQUARED 0.745, read-out: LUCIFERASE INFECTION ASSAY - IC50): > 10 µM
CCOC(=O)c1c(NC(=O)C[n+]2ccc(Cc3ccccc3)cc2)sc(C)c1C | 8.6 µM | 3.79 µM | –
CC(C)c1ccc(NC(=O)C2=CN3CCN(Cc4ccccc4)C(=O)N=C3O2)cc1 | > 10 µM | – | IC50 (FFLUC_HILL_SLOPE 11.9, FFLUC_R_SQUARED 0.0164, read-out: LUCIFERASE INFECTION ASSAY - IC50): > 10 µM
Cc1ccc(-n2nc(C)c(NC(=O)COc3ccc4c(=O)c(-c5ccccc5)coc4c3)c2C)cc1 | 3.64 µM | – | IC50 (HEPG2TOX_HILL_SLOPE 9.24, HEPG2TOX_R_SQUARED 0.0911, PBLUC_HILL_SLOPE 28.6, PBLUC_R_SQUARED 0.544, read-out: LUCIFERASE INFECTION ASSAY - IC50): 3.37 µM
CN(C)C(=O)N1CCC(C(=O)N2CC(=O)N(C3CCCCC3)CC(OCc3ccncc3)C2)CC1 (stereo unspecified) | > 6.8 µM | > 6.8 µM | –
CCN(CC)S(=O)(=O)c1ccc(C(=O)c2c(C)c(C(=O)C(F)(F)F)c3ccccn23)cc1 | > 10 µM | > 10 µM | –
Oc1c(C(c2ccc(Cl)cc2Cl)N2CCOCC2)ccc2cccnc12 (stereo unspecified) | 8.77 µM | 4.36 µM | –
Cc1cc(C(=O)C[n+]2ccc(N(C)C)cc2)c(C)n1Cc1ccccc1 | 4.24 µM | – | IC50 (HEPG2TOX_HILL_SLOPE 1.63, HEPG2TOX_R_SQUARED 0.735, PBLUC_HILL_SLOPE 13.8, 4.61, PBLUC_R_SQUARED 0.572, 0.235, read-out: LUCIFERASE INFECTION ASSAY - IC50): 3.09 µM
CCc1cccc2c(C(=O)CN3CCC(C(=O)Nc4ccc5c(c4)OCO5)CC3)c[nH]c12 | > 10 µM | > 10 µM | –
CC(C)c1ccc(N/N=C/c2cc(C#Cc3ccccc3)cs2)cc1 | > 9.58 µM | > 9.58 µM | –
O=C(CSCCCN1CCN(c2cccc(Cl)c2)CC1)NNC(=O)Nc1cc(Cl)cc(Cl)c1 | > 6.22 µM | > 6.22 µM | –
CC(C)Cc1ccc(C(=O)CC(Sc2ccccc2N)c2cccc([N+](=O)[O-])c2)cc1 (stereo unspecified) | 2.86 µM | – | IC50 (FFLUC_HILL_SLOPE 39.9, FFLUC_R_SQUARED 0.525, PBLUC_HILL_SLOPE 1.28, PBLUC_R_SQUARED 0.727, read-out: LUCIFERASE INFECTION ASSAY - IC50): 0.511 µM
COc1ccccc1CNc1nc(NCc2cccc(OC)c2OC)c2sccc2n1 | > 7.56 µM | – | IC50 (PBLUC_HILL_SLOPE 0.707, PBLUC_R_SQUARED 0.411, read-out: LUCIFERASE INFECTION ASSAY - IC50): 2.69 µM
